According to PubChem BioAssay (NCI):
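All cell lines were grown in 96-well plates and treated with compound for 48 hours. At the TGI there is no net growth.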

Assays:
Test in all cases: NCI anticancer screen, dose series, 48 h
786-0 renal = tested on: 786-0 renal
A498 renal = tested on: A498 renal
A549 NSCLC = tested on: A549 NSCLC
ACHN renal = tested on: ACHN renal
BT-549 breast = tested on: BT-549 breast
CAKI-1 renal = tested on: CAKI-1 renal
CCRF-CEM leukemia = tested on: CCRF-CEM leukemia
COLO 205 colon = tested on: COLO 205 colon
DU-145 prostate = tested on: DU-145 prostate
EKVX NSCLC = tested on: EKVX NSCLC
HCC-2998 colon = tested on: HCC-2998 colon
HCT-116 colon = tested on: HCT-116 colon
HCT-15 colon = tested on: HCT-15 colon
HL-60(TB) leukemia = tested on: HL-60(TB) leukemia
HOP-62 NSCLC = tested on: HOP-62 NSCLC
HOP-92 NSCLC = tested on: HOP-92 NSCLC
HT29 colon = tested on: HT29 colon
IGROV1 ovarian = tested on: IGROV1 ovarian
K-562 leukemia = tested on: K-562 leukemia
KM12 colon = tested on: KM12 colon
LOX IMVI melanoma = tested on: LOX IMVI melanoma
M14 melanoma = tested on: M14 melanoma
MALME-3M melanoma = tested on: MALME-3M melanoma
MCF7 breast = tested on: MCF7 breast
MDA-MB-231 breast = tested on: MDA-MB-231 breast
MDA-MB-435 = tested on: MDA-MB-435
MDA-N = tested on: MDA-N
MOLT-4 leukemia = tested on: MOLT-4 leukemia
NCI-H226 lung = tested on: NCI-H226 lung
NCI-H23 lung = tested on: NCI-H23 lung
NCI-H460 lung = tested on: NCI-H460 lung
NCI-H522 lung = tested on: NCI-H522 lung
NCI/ADR-RES ovarian = tested on: NCI/ADR-RES ovarian
OVCAR-3 ovarian = tested on: OVCAR-3 ovarian
OVCAR-4 ovarian = tested on: OVCAR-4 ovarian
OVCAR-5 ovarian = tested on: OVCAR-5 ovarian
OVCAR-8 ovarian = tested on: OVCAR-8 ovarian
PC-3 prostate = tested on: PC-3 prostate
RPMI-8226 leukemia = tested on: RPMI-8226 leukemia
RXF 393 renal = tested on: RXF 393 renal
SF-268 CNS = tested on: SF-268 CNS
SF-295 CNS = tested on: SF-295 CNS
SF-539 CNS = tested on: SF-539 CNS
SK-MEL-2 melanoma = tested on: SK-MEL-2 melanoma
SK-MEL-28 melanoma = tested on: SK-MEL-28 melanoma
SK-MEL-5 melanoma = tested on: SK-MEL-5 melanoma
SK-OV-3 ovarian = tested on: SK-OV-3 ovarian
SN12C renal = tested on: SN12C renal
SNB-19 CNS = tested on: SNB-19 CNS
SNB-75 CNS = tested on: SNB-75 CNS
SW-620 colon = tested on: SW-620 colon
T-47D breast = tested on: T-47D breast
TK-10 renal = tested on: TK-10 renal
U251 CNS = tested on: U251 CNS
UACC-257 melanoma = tested on: UACC-257 melanoma
UACC-62 melanoma = tested on: UACC-62 melanoma
UO-31 renal = tested on: UO-31 renal

`CCOC(=O)[C@@H]1C2C(=C[C@H]3[C@H]1C(=O)N1CCCC[C@H]31)CCCN2C(=O)OCc1ccccc1` (stereo partly drawn) was tested, and the TGI (786-0 renal) was over 100 µM, the TGI (A498 renal) was 96 µM and the TGI (A549 NSCLC) was over 100 µM. For the same molecule, the TGI (ACHN renal) was over 100 µM, the TGI (BT-549 breast) was 62.5 µM and the TGI (CAKI-1 renal) was over 100 µM. For the same molecule, the TGI (CCRF-CEM leukemia) was over 100 µM, the TGI (COLO 205 colon) was 51.3 µM and the TGI (DU-145 prostate) was over 100 µM. The TGI (EKVX NSCLC) was over 100 µM, the TGI (HCC-2998 colon) was 53.1 µM and the TGI (HCT-116 colon) was over 100 µM. The TGI (HCT-15 colon) was over 100 µM, the TGI (HL-60(TB) leukemia) was 45 µM and the TGI (HOP-62 NSCLC) was over 100 µM. The TGI (HOP-92 NSCLC) was over 100 µM, the TGI (HT29 colon) was over 100 µM and the TGI (IGROV1 ovarian) was over 100 µM. The TGI (K-562 leukemia) was over 100 µM, the TGI (KM12 colon) was over 100 µM and the TGI (LOX IMVI melanoma) was over 100 µM. The TGI (M14 melanoma) was over 100 µM, the TGI (MALME-3M melanoma) was over 100 µM and the TGI (MCF7 breast) was over 100 µM. The TGI (MDA-MB-231 breast) was over 100 µM, the TGI (MDA-MB-435) was over 100 µM and the TGI (MDA-N) was over 100 µM. The TGI (MOLT-4 leukemia) was 38.2 µM, the TGI (NCI-H226 lung) was over 100 µM and the TGI (NCI-H23 lung) was 93.9 µM. The TGI (NCI-H460 lung) was 82.6 µM, the TGI (NCI-H522 lung) was 45.2 µM and the TGI (NCI/ADR-RES ovarian) was 81.2 µM. For the same molecule, the TGI (OVCAR-3 ovarian) was over 100 µM, the TGI (OVCAR-4 ovarian) was over 100 µM and the TGI (OVCAR-5 ovarian) was over 100 µM. It also gave a TGI (OVCAR-8 ovarian) of over 100 µM, a TGI (PC-3 prostate) of 77.6 µM and a TGI (RPMI-8226 leukemia) of 46.4 µM. The TGI (RXF 393 renal) was over 100 µM, the TGI (SF-268 CNS) was 60.3 µM and the TGI (SF-295 CNS) was over 100 µM. The TGI (SF-539 CNS) was over 100 µM, the TGI (SK-MEL-2 melanoma) was 56.8 µM and the TGI (SK-MEL-28 melanoma) was over 100 µM. The TGI (SK-MEL-5 melanoma) was over 100 µM, the TGI (SK-OV-3 ovarian) was over 100 µM and the TGI (SN12C renal) was over 100 µM. It also gave a TGI (SNB-19 CNS) of over 100 µM, a TGI (SNB-75 CNS) of over 100 µM and a TGI (SW-620 colon) of over 100 µM. For the same molecule, the TGI (T-47D breast) was over 100 µM, the TGI (TK-10 renal) was over 100 µM and the TGI (U251 CNS) was over 100 µM. For the same molecule, the TGI (UACC-257 melanoma) was over 100 µM, the TGI (UACC-62 melanoma) was 39.2 µM and the TGI (UO-31 renal) was over 100 µM.
For `COc1nc(-c2cn(S(=O)(=O)c3ccc(C)cc3)c3ccc(Br)cc23)cc(C(F)(F)F)c1C#N`, the TGI (A498 renal) was over 100 µM, the TGI (A549 NSCLC) was over 100 µM and the TGI (ACHN renal) was over 100 µM. It also gave a TGI (BT-549 breast) of 74.2 µM, a TGI (CAKI-1 renal) of over 100 µM and a TGI (CCRF-CEM leukemia) of over 100 µM. It also gave a TGI (COLO 205 colon) of over 100 µM, a TGI (DU-145 prostate) of 31.3 µM and a TGI (EKVX NSCLC) of over 100 µM. It also gave a TGI (HCC-2998 colon) of over 100 µM, a TGI (HCT-15 colon) of over 100 µM and a TGI (HL-60(TB) leukemia) of over 100 µM. It also gave a TGI (HOP-92 NSCLC) of over 100 µM, a TGI (HT29 colon) of over 100 µM and a TGI (IGROV1 ovarian) of over 100 µM. The TGI (K-562 leukemia) was over 100 µM, the TGI (KM12 colon) was over 100 µM and the TGI (LOX IMVI melanoma) was over 100 µM. For the same molecule, the TGI (MALME-3M melanoma) was over 100 µM, the TGI (MCF7 breast) was over 100 µM and the TGI (MDA-MB-435) was over 100 µM. For the same molecule, the TGI (MDA-N) was over 100 µM, the TGI (MOLT-4 leukemia) was over 100 µM and the TGI (NCI-H226 lung) was 53.9 µM. For the same molecule, the TGI (NCI-H23 lung) was 44.9 µM, the TGI (NCI-H460 lung) was over 100 µM and the TGI (NCI-H522 lung) was over 100 µM. It also gave a TGI (NCI/ADR-RES ovarian) of over 100 µM, a TGI (OVCAR-3 ovarian) of 35.8 µM and a TGI (OVCAR-4 ovarian) of over 100 µM. The TGI (OVCAR-5 ovarian) was over 100 µM, the TGI (OVCAR-8 ovarian) was 64.9 µM and the TGI (PC-3 prostate) was over 100 µM. It also gave a TGI (RPMI-8226 leukemia) of 41.8 µM, a TGI (RXF 393 renal) of 58.8 µM and a TGI (SF-268 CNS) of over 100 µM. For the same molecule, the TGI (SF-295 CNS) was over 100 µM, the TGI (SF-539 CNS) was over 100 µM and the TGI (SK-MEL-2 melanoma) was over 100 µM. The TGI (SK-MEL-28 melanoma) was over 100 µM, the TGI (SK-MEL-5 melanoma) was over 100 µM and the TGI (SK-OV-3 ovarian) was 59.5 µM. For the same molecule, the TGI (SN12C renal) was over 100 µM, the TGI (SNB-19 CNS) was 62.4 µM and the TGI (SNB-75 CNS) was 49.4 µM. The TGI (SW-620 colon) was over 100 µM, the TGI (T-47D breast) was 42.9 µM and the TGI (U251 CNS) was 35.2 µM. For the same molecule, the TGI (UACC-257 melanoma) was over 100 µM, the TGI (UACC-62 melanoma) was over 100 µM and the TGI (UO-31 renal) was over 100 µM.
